Reference: ChEMBL document CHEMBL5678818, “Discovery of potent SOS1 inhibitors that block RAS activation via disruption of the RAS-SOS1 interaction” (Proc Natl Acad Sci U S A, 2019)

Legend:
[1] = biological target: Cyclin-dependent kinase 13 (Homo sapiens) (UniProt Q14004); experiment: Inhibition of CDC2L5 (unknown origin) assessed as residual activity at 100 nM by KINOMEscan analysis relative to control
[2] = biological target: T1, Testis-specific serine/threonine-protein kinase 1 (Homo sapiens) (UniProt Q9BXA7); experiment: Inhibition of TSSK1B (unknown origin) assessed as residual activity at 100 nM by KINOMEscan analysis relative to control
T1 sequence (whole entry): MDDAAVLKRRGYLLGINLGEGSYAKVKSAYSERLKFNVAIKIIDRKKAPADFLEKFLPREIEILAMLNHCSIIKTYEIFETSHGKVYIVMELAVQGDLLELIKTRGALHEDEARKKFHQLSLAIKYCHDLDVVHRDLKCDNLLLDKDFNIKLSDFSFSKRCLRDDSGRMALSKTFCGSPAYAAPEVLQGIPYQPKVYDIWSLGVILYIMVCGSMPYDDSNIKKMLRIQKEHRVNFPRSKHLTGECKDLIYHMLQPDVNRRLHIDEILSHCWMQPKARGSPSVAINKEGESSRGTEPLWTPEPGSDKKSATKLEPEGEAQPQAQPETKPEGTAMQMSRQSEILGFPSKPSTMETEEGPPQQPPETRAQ

[3] = biological target: MAP/microtubule affinity-regulating kinase 3 (Homo sapiens) (UniProt P27448); experiment: Inhibition of MARK3 (unknown origin) assessed as residual activity at 100 nM by KINOMEscan analysis relative to control
Sequence of MAP/microtubule affinity-regulating kinase 3 (Homo sapiens) (P27448 whole entry, looked up): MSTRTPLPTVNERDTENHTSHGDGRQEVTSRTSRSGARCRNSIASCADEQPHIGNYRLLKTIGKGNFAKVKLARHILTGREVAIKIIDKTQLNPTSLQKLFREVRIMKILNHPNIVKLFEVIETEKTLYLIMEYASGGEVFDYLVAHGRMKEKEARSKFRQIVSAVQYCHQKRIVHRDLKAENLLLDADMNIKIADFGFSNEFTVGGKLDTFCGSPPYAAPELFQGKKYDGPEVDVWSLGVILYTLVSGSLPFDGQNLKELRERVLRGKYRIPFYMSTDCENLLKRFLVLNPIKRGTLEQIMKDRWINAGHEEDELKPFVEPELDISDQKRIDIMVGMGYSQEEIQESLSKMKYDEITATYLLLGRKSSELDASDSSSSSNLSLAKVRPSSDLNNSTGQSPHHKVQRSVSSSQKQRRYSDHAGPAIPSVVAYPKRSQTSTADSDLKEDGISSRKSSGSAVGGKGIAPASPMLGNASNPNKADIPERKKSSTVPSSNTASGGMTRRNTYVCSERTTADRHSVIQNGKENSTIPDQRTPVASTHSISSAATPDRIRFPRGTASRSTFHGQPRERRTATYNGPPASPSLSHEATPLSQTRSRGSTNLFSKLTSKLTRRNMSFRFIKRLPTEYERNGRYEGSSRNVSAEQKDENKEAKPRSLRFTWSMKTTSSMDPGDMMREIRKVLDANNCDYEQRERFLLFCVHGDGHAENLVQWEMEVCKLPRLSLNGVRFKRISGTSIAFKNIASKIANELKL

[4] = biological target: Dual specificity tyrosine-phosphorylation-regulated kinase 1A (Homo sapiens) (UniProt Q13627); experiment: Inhibition of DYRK1A (unknown origin) assessed as residual activity at 100 nM by KINOMEscan analysis relative to control
[5] = biological target: Mitogen-activated protein kinase 11 (Homo sapiens) (UniProt Q15759); experiment: Inhibition of p38-beta (unknown origin) assessed as residual activity at 100 nM by KINOMEscan analysis relative to control
Sequence of Mitogen-activated protein kinase 11 (Homo sapiens) (Q15759 whole entry): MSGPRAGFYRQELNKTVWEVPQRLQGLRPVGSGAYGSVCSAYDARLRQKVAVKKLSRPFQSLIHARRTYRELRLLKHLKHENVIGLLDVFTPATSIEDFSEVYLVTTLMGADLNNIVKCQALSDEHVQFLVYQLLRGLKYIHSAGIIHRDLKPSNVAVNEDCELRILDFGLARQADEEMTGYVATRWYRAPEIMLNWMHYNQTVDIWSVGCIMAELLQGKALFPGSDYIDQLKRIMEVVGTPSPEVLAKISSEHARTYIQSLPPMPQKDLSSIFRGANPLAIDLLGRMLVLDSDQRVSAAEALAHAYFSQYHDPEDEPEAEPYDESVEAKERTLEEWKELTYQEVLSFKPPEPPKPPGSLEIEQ

[6] = biological target: T2, cAMP-dependent protein kinase catalytic subunit PRKX (Homo sapiens) (UniProt P51817); experiment: Inhibition of PRKX (unknown origin) assessed as residual activity at 100 nM by KINOMEscan analysis relative to control
T2 sequence (whole entry): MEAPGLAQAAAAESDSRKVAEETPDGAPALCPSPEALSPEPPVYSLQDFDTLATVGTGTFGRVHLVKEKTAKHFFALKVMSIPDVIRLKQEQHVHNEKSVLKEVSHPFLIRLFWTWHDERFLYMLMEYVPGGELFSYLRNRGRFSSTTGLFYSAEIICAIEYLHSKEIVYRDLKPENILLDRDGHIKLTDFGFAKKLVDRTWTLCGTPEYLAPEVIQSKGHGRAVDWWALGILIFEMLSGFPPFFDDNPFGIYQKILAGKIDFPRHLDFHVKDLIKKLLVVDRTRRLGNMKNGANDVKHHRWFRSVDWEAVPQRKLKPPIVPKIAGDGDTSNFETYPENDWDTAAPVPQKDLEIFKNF

[7] = biological target: T3, Serine/threonine-protein kinase Chk1 (Homo sapiens) (UniProt O14757); experiment: Inhibition of CHEK1 (unknown origin) assessed as residual activity at 100 nM by KINOMEscan analysis relative to control
T3 sequence (whole entry): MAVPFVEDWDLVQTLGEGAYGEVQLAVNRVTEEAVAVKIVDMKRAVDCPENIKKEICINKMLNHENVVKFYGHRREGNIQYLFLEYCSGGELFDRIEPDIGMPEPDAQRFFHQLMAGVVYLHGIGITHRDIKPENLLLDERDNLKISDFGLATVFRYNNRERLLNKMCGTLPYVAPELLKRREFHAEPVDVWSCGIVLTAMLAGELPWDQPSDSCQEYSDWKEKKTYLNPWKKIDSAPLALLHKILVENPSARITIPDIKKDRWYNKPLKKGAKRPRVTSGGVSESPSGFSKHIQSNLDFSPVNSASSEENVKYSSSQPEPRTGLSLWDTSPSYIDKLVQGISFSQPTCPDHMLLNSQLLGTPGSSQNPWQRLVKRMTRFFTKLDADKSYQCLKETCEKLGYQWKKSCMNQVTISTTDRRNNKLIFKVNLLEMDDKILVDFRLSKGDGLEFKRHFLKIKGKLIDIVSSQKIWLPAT

[8] = biological target: Cyclin-dependent kinase 2 homolog (Plasmodium falciparum (isolate K1 / Thailand)) (UniProt Q07785); experiment: Inhibition of Plasmodium falciparum PK5 assessed as residual activity at 100 nM by KINOMEscan analysis relative to control
Sequence of Cyclin-dependent kinase 2 homolog (Plasmodium falciparum (isolate K1 / Thailand)) (Q07785 whole entry): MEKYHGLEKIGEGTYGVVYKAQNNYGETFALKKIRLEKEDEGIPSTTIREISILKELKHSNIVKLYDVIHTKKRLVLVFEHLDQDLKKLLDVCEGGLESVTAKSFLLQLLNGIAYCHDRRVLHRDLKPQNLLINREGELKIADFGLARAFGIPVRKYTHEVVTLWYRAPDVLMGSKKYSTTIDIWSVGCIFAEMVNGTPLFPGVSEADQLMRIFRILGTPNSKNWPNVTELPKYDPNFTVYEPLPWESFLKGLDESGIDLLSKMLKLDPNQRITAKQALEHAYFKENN

Sequence of Cyclin-dependent kinase 13 (Homo sapiens) (Q14004 whole entry, looked up): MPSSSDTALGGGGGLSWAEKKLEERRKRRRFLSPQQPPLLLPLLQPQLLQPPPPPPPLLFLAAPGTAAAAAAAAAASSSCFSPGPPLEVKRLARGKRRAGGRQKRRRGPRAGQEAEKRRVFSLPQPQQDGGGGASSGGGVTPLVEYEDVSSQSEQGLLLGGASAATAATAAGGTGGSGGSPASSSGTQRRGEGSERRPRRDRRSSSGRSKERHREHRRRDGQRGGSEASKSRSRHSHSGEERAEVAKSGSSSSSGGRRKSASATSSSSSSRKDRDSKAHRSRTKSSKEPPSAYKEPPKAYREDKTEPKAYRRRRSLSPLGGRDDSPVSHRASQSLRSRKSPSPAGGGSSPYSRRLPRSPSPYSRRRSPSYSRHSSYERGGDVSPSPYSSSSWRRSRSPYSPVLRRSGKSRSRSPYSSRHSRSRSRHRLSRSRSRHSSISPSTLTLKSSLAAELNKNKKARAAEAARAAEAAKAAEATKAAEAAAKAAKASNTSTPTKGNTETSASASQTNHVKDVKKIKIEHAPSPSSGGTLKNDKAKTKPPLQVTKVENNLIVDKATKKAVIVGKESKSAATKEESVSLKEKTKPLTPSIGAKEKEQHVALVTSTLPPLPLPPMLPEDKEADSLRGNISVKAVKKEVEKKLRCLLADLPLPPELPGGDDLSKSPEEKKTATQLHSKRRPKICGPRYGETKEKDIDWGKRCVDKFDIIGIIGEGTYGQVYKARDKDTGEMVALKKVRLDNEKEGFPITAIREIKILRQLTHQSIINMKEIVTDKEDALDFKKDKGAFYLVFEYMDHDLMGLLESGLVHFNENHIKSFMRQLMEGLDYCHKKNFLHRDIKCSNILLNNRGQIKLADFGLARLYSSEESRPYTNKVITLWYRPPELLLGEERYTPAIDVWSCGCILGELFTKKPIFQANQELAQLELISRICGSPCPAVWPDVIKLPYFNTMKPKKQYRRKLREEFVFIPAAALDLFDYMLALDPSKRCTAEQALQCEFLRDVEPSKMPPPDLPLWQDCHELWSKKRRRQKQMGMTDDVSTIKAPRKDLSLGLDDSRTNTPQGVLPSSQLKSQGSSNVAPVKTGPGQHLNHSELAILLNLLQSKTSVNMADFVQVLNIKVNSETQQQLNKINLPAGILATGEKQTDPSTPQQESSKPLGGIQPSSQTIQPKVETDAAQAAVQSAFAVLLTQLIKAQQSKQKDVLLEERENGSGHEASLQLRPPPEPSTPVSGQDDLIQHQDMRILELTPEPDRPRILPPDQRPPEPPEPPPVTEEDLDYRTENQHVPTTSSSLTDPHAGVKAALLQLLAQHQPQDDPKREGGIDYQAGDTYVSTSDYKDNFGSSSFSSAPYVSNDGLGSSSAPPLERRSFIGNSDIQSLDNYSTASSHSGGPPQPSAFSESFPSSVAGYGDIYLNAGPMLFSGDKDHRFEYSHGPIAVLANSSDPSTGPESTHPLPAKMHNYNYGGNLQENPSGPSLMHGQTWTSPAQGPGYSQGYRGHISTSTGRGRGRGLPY

COc1cc2ncnc(N[C@H](C)c3cccc4ccccc34)c2cc1OC
Activity [1]: 92% | Activity [2]: 84% | Activity [3]: 88% | Activity [4]: 90% | Activity [5]: 81% | Activity [6]: 100% | Activity [7]: 100% | Activity [8]: 100%
